Each structure is given as a SMILES string. Some results are limits rather than exact numbers.

The subject of data set [1] is MCF7 breast adenocarcinoma cells. Put plainly: Anticancer cell cytotoxicity assay. Type of data set: cell-based. Conditions: Homo sapiens, MCF7, 24 h, read-out: MCF7 IC50 (μM).
The test system of data set [2] is nine tumor cell lines and primary PBMCs. Put plainly: Cytotoxicity across the panel of nine tumor cell lines and PBMCs. The class given is cell-based, human. Conditions: 24 h, up to 50 μM.
Data set [3] has as its system primary peripheral blood mononuclear cells (PBMCs). Briefly: Cytotoxicity assay. Type of data set: cell-based. Conditions: Homo sapiens, PBMC, 24 h, read-out: PBMCs IC50 (μM).
Data set [4] has as its system LS174T colorectal adenocarcinoma cells. Briefly: Anticancer cell cytotoxicity assay. The class given is cell-based. Conditions: Homo sapiens, 24 h, read-out: LS174T IC50 (μM).
A further data set has as its target T1, MKK7 (Homo sapiens, UniProt O14733).
T1 sequence (O14733 1-419): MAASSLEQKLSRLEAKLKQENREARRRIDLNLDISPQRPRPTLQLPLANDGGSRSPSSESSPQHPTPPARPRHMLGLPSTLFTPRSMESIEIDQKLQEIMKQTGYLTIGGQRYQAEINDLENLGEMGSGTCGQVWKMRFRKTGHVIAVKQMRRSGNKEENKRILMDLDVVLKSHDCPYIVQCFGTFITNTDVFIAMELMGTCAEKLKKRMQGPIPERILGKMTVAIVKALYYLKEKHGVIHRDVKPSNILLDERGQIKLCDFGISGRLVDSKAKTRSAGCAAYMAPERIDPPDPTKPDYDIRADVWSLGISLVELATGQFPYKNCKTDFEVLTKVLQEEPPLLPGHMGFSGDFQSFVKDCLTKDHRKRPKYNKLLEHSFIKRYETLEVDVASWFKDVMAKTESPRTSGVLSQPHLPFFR
Briefly: KINOMEscan kinase binding assay. Conditions: for Kd (μM) vs MKK7: KINOMEscan, duplicate, maximum concentration 30 μM.

In data set [5] the target is T2, human neutrophil elastase (HNE) (Homo sapiens, UniProt P08246).
T2 sequence (P08246 30-247 limits assumed): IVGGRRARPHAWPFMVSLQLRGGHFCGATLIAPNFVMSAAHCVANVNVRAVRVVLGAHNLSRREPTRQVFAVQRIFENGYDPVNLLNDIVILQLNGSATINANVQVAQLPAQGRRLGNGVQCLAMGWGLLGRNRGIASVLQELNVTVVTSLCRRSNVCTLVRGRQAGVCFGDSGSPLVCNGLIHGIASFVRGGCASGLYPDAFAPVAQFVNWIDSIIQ
Put plainly: HNE inhibitory assay. The class given is biochemical.

Data set [6] has as its system SW-982 synovial sarcoma cells. Put plainly: Anticancer cell cytotoxicity assay. Type of data set: cell-based. Conditions: Homo sapiens, SW982, 24 h, read-out: SW-982 IC50 (μM).
The test system of data set [7] is A549 lung carcinoma cells. Briefly: Anticancer cell cytotoxicity assay. The class given is cell-based. Conditions: Homo sapiens, A549, 24 h, read-out: A549 IC50 (μM).
In the next data set the test system is U936. Briefly: Anticancer cell cytotoxicity assay. The class given is cell-based. Conditions: Homo sapiens, 24 h, read-out: U936 IC50 (μM).
A further data set concerns Jurkat T cells. Briefly: Anticancer cell cytotoxicity assay. Type of data set: cell-based. Conditions: Homo sapiens, 24 h, read-out: Jurkat IC50 (μM).
Data set [8] has as its system MonoMac6 monocytic leukemia cells. Briefly: Anticancer cell cytotoxicity assay. Conditions: Homo sapiens, MONO-MAC-6, 24 h, read-out: MonoMac6 IC50 (μM). Type of data set: cell-based.
The test system of data set [9] is THP-1 monocytic leukemia cells. Briefly: Anticancer cell cytotoxicity assay. Type of data set: cell-based. Conditions: Homo sapiens, THP-1, 24 h, read-out: THP-1 IC50 (μM).
The subject of data set [10] is HL60 promyelocytic leukemia cells. Put plainly: Anticancer cell cytotoxicity assay. Conditions: Homo sapiens, HL-60, 24 h, read-out: HL60 IC50 (μM). The class given is cell-based.

One may read the IC50 as the concentration needed to halve the response being measured. As usually defined, the Kd is the free concentration of one partner at which half of the binding sites on the other are occupied at equilibrium, for simple one-to-one binding. Low readings indicate higher affinity, high ones lower affinity. As for `COc1ccc(OC)c2c1C(=O)C=C(SCCC(=O)O)C2=O` [Compound 14, GN25], the 50% inhibitory concentration (IC50) in data set [1], in [3], in data set [4], in [5], in [6] and in [7] was greater than 50 µM throughout. Also, the “cytotoxicity toward tumor cell lines and PBMCs (in words)” value in data set [2] is recorded as “weakly toxic or nontoxic”. The compound also returned a Kd at MKK7 greater than 30 µM. The “Kd (μM) vs MKK7” value at MKK7 was “inactive”.

Take `COC1=C(C)C(=O)c2ccccc2C1=O` [Compound 17]: the IC50 in data set [3], in [4], in [5], in data set [6] and in [7] was greater than 50 µM in each case.

With `CC(C)=CCC1=C(O)C(=O)c2ccccc2C1=O` [Compound 3, lapachol], the IC50 (in data set [1]; in [3]; in the data set with U936; in [4]; in data set [5]; in [6]) was greater than 50 µM each time. The IC50 (in the data set with Jurkat T cells; in data set [7]; in [8]; in [9]; in [10]) was greater than 50 µM each time. The “cytotoxicity toward tumor cell lines and PBMCs (in words)” value in [2] is “did not find any toxicity”. The dissociation constant (Kd) at MKK7 is greater than 30 µM. In addition, the “Kd (μM) vs MKK7” value on MKK7 was “did not bind”.

(Values after publication PMC6925601 (European journal of medicinal chemistry, 2019).)
